Measurements: patent EP0294695A2, “New polyoxygenated labdane derivatives, a process for their preparation, and their use as medicaments” (HOECHST AKTIENGESELLSCHAFT, priority 1987, dated 1988)

Test: reduction of intraocular pressure
Assay type: in vivo
Conditions: 2% strength solution of the test compound; for Duration: duration of the decrease in intraocular pressure
Source text: The results of investigations into the reduction of intraocular pressure by some typical compounds of the formula I, according to the invention, are listed in Table 2. The results are expressed as the percentage decrease in the intraocular pressure when a 2% strength solution of the test compound is used.

Row | Compound | Decrease in intraocular pressure(%) | Duration
1 | C=C[C@@]1(C)CC(=O)[C@]2(O)[C@@]3(C)[C@@H](O)CCC(C)(C)[C@@H]3[C@H](O)[C@H](OC(=O)NC)[C@@]2(C)O1 [Compound 2, 8,13-Epoxy-7β-methylaminocarbonyloxy-1α,6β,9α-trihydroxylabd-14-en-11-one] | 23% | 5 h
2 | C=C[C@@]1(C)CC(=O)[C@]2(O)[C@@]3(C)[C@@H](O)CCC(C)(C)[C@@H]3[C@H](O)[C@H](OC(=O)NC(C)(C)C)[C@@]2(C)O1 [Compound 4, 7β-t-Butylaminocarbonyloxy-8,13-epoxy-1α,6β9α-trihydroxylabd-14-en-11-one] | 21% | 6 h
3 | C=C[C@@]1(C)CC(=O)[C@]2(O)[C@@]3(C)[C@@H](OC(=O)Nc4ccccc4)CCC(C)(C)[C@@H]3[C@H](O)[C@H](OC(=O)Nc3ccccc3)[C@@]2(C)O1 [Compound 1] | 18% | 5 h
4 | C=C[C@@]1(C)CC(=O)[C@]2(O)[C@@]3(C)[C@@H](O)CCC(C)(C)[C@@H]3[C@H](O)[C@H](OC(=O)NC(C)C)[C@@]2(C)O1 [Compound 3, 7β-isopropylaminocarbonyloxy-8,13-epoxy-1α,6β,9α-trihydroxylabd-14-en-11-one] | 34% | 6 h
